From patent US20230277669A1, “USES OF UROLITHINS” (Amazentis SA, priority 2022, published 2023)

Columns and labels:
[1] = tested on: CD3^+ T cells; test: qPCR analysis of in vitro activated CD3+ cells; format: cell-based
Procedure: (FIG. 4A) Scheme of CD3+ T-cell activation and analysis for various timepoints in order to investigate mitophagy induction in vitro. (FIG. 4B) Analysis of mitochondrial membrane potential within CD8+ T cells, with TMRM^lo representing cells with low mitochondrial membrane potential. Analysis was performed six hours after stimulation with aCD/aCD28 stimulation beads at the presence of the indicated treatments. N=4 per group, *p < 0.05 by Mann Whitney U test. One of two independent experiments are shown. (FIG. 4C) Representative flow histogram and quantification of lysosome formation in CD8+ cells six hours after in vitro stimulation. MFI shown relative to DMSO controls, n=4. Data are normalised mean ± SD, statistical analysis by two-sided t-test. One out of two independent experiments are shown. (FIG. 4D) Mitotracker Red staining of in vitro stimulated CD8+ cells after 24 hours of Urolithin A (UA25 n=6; UA50 n=6) or vehicle control treatment (DMSO: n=4). […] (FIG. 4H) CD8+ cells from Pink1^-/- mice display deficient mitophagy upon UA treatment in vitro: Lysosome formation in CD8+ of Pink1^-/- mice as assessed by Lysotracker staining 6h post stimulation at the presence of UA or DMSO (n=4). […] Quantification of TCF1^hi cells among CD8. (FIG. 4N) Quantification of PD1^hi cells among CD8. (FIG. 4O) Quantification of and Tim3^hi cells among CD8. […]

[2] = tested on: muscle function; conditions: urolithin A-high diet, cited from earlier work
[3] = tested on: C.elegans; conditions: in vivo; cited from earlier work
[4] = tested on: FoxP3+ T-regulatory cells; conditions: cited from earlier work
[5] = tested on: Pink1^-/- CD8^+ T cells; test: In vitro stimulation of Pink1-/- T cells in presence of UA; format: cell-based, Pink1^-/- mice
Procedure: (§1) (FIG. 4A) Scheme of CD3+ T-cell activation and analysis for various timepoints in order to investigate mitophagy induction in vitro. (FIG. 4B) Analysis of mitochondrial membrane potential within CD8+ T cells, with TMRM^lo representing cells with low mitochondrial membrane potential. Analysis was performed six hours after stimulation with aCD/aCD28 stimulation beads at the presence of the indicated treatments. N=4 per group, *p < 0.05 by Mann Whitney U test. One of two independent experiments are shown. (FIG. 4C) Representative flow histogram and quantification of lysosome formation in CD8+ cells six hours after in vitro stimulation. MFI shown relative to DMSO controls, n=4. Data are normalised mean ± SD, statistical analysis by two-sided t-test. One out of two independent experiments are shown. (FIG. 4D) Mitotracker Red staining of in vitro stimulated CD8+ cells after 24 hours of Urolithin A (UA25 n=6; UA50 n=6) or vehicle control treatment (DMSO: n=4). A representative flow histogram depicting identification of Mitotracker^hi cells is shown. Data are mean ± SD, statistical analysis was performed by two-sided t-test (*p < 0.05; ***p <0.001; ****p < 0.0001). Experiment was repeated twice. (FIG. 4E) Subset-specific identification of Mitotracker red accumulation after 24 hours of in vitro stimulation either with vehicle control (DMSO) or 50 µM Urolithin A (n=5). Subsets were identified was depicted in the FIGS. 7-9. Data are mean ± SD, statistical analysis by two-sided t-test (* p<0.05, *** p<0.001 and **** p<0.0001). (FIG. 4F) qPCR analysis of various autophagy/mitophagy associated genes of in vitro activated CD3+ cells, 24 h after activation (n=3). Data are ± SEM, statistical analysis was performed by two-sided t-test (*p < 0.05,**p < 0.01). Overall p value is given for the comparison over the entire panel of genes after two-way ANOVA test. (FIG. 4G) Western blot of Parkin protein expression in UA or DMSO (n=3) treated cells after 24 h. Cells were stimulated at the presence of plate-bound aCD3/aCD28 antibodies. […] (FIG. 4H) CD8+ cells from Pink1^-/- mice display deficient mitophagy upon UA treatment in vitro: Lysosome formation in CD8+ of Pink1^-/- mice as assessed by Lysotracker staining 6h post stimulation at the presence of UA or DMSO (n=4). Data are mean ± SD, one out of two independent experiments are shown. (FIG. 4I) CD8+ cells from Pink1^-/- mice display deficient mitophagy upon UA treatment in vitro: Mitotracker red staining of Pink1^-/- CD8+ stimulated in vitro for 48 h, either in the presence of UA or DMSO (n=4). Percentage of Mitotracker^hi CD8+ cells are shown. Data are mean ± SD and acquired via flow cytometry. One out of two independent experiments are shown. Statistical analysis was performed by two-sided t-test (n.s., not significant). (FIG. 4J) CD8+ cells from Pink^-/- mice fail to reprogram to TSCM after UA exposure in vitro: TSCM formation in Pink1^-/- CD8+ cells 48 h after stimulation in the presence of UA (25 µM and 50 µM) and DMSO (n=4, respectively). Data are mean ± SD, statistical analysis was performed by two-sided t-test (***p <0.001). Data depicts results of three independent experiments. (FIG. 4K) Expression of TCF1 in naïve-like CD62L^+CD44^-CD8^+ Pink1^-/- cells. Data are ± SD, depicted as MFI (***p <0.001 by two-sided t-test). (FIG. 4L) Growth curve of Pink1^-/- mice s.c. injected with APTK-organoids, fed UA-rich or control diet as depicted in FIG. 1J. n=4 per group. Data are mean ± SD. (FIG. 4M) Flow cytometry analysis of TIL in Pink ^-^/- mice s.c. transplanted with APTK tumors, fed either UA or control diet. Quantification of TCF1^hi cells among CD8. (FIG. 4N) Quantification of PD1^hi cells among CD8. (FIG. 4O) Quantification of and Tim3^hi cells among CD8. (FIG. 4P) Ex vivo cytokine release assay. TIL of Pink1^-/- from FIG. 4L were stimulated ex vivo with PMA and lonomycin, in the presence of Brefeldin A for three hours. Data depicts percentage of TNFα^hi cells within the CD8+ compartment. All data are mean ± SD (n=4). […]

[6] = tested on: APTK tumors; test: Oral UA in Pink1-/- mice with s.c. APTK tumors; format: in vivo
Procedure: as §1, with “One out of two independent experiments are shown. Statistical analysis was performed by two-sided t-test (n.s., not significant). (FIG. 4J) CD8+ cells from Pink^-/- mice fail to reprogram to TSCM after UA exposure in vitro: TSCM formation in Pink1^-/- CD8+ cells 48 h after stimulation in the presence of UA (25 µM and 50 µM) and DMSO (n=4, respectively). Data are mean ± SD, statistical analysis was performed by two-sided t-test (***p <0.001). Data depicts results of three independent experiments. (FIG. 4K) Expression of TCF1 in naïve-like CD62L^+CD44^-CD8^+ Pink1^-/- cells. Data are ± SD, depicted as MFI (***p <0.001 by two-sided t-test). (FIG. 4L) Growth curve of Pink1^-/- mice s.c. injected with APTK-organoids, fed UA-rich or control diet as depicted in FIG. 1J. n=4 per group. Data are mean ± SD. (FIG. 4M) Flow cytometry analysis of TIL in Pink ^-^/- mice s.c. transplanted with APTK tumors, fed either UA or control diet.” left out, “CD8.” for “CD8. (FIG. 4P) Ex vivo cytokine release assay. TIL of Pink1^-/- from FIG. 4L were stimulated ex vivo with PMA and lonomycin, in the presence of Brefeldin A for three hours. Data depicts percentage of TNFα^hi cells within the CD8+ compartment. All data are mean ± SD (n=4).”

O=c1oc2cc(O)ccc2c2ccc(O)cc12 [Urolithin A]
autophagy genes and Pink1 (qPCR) ([1]; 24 h after activation): significant upregulation
transcription of Wnt target genes (qPCR) ([1]; 24 h after stimulation): increased transcription
recovery of muscle function ([2]; mice with Duchenne muscular dystrophy): recovery of muscle function
muscle function [2]: superior muscle function
lifespan [3]: prolonged lifespan
mitochondrial content [3]: higher mitochondrial content
FoxP3+ T-regulatory cells [4]: expanding FoxP3+ T-regulatory cells
TCF-1 in CD44-CD62L+CD8+ T cells [5]: expressed less TCF-1
cytoplasmic expression of Pgam5 ([5]; 6 h, upon UA exposure): lack of cytoplasmic expression of Pgam5
UA-induced lysosome formation ([5]; 6h post stimulation): prevented
PGC-1α expression ([5]; 48 h): failed to enhance
UA-induced decrease in mitochondrial content ([5]; 48 h): prevented
TSCM phenotype ([5]; 48 h, UA 25 µM and 50 µM): failed to exhibit a TSCM phenotype
ex vivo cytokine release of CD8+ TIL ([6]; PMA and Ionomycin restimulation): did not exhibit differences
TCF-1 expression in CD8+ TIL ([6]; UA or control diet): did not exhibit differences
exhaustion markers in CD8+ TIL ([6]; UA or control diet): did not exhibit differences
tumor suppressive effect of UA (growth curve) ([6]; UA-rich or control diet): abrogated the tumor suppressive effect of UA
